# Experimental data from patent publication US8242152B2, “Use of 4-[(4-thiazolyl)phenoxy]alkoxy-benzamidine derivatives for the prophylaxis and treatment of osteoporosis” (Dong Wha Pharmaceutical Co., Ltd., priority 2001, dated 2012).
# Entries after “also recorded” stand apart in the source; their conditions may differ.
# Tested on: rabbit osteoclasts
# Assay: TRAP(+) MNC formation in isolated rabbit osteoclast cultures, single treatment without LTB4 (Example 6)
# Type: cell-based
# Protocol: Rabbit osteoclasts were isolated as described by Victoria Tai's report (Doctoral Dissertation, 1997, Graduate Department of Pharmacology, University of Toronto) and Rraser P. Coxon et al. (Methods in Molecular Medicine, vol 80). Neonatal rabbits (New Zealand White) were sacrificed by ether-inhaling method under a hood. The removed long bones were dissected free of attached soft tissues and placed into ice-cold PBS. The long bones were cut longitudinally and mechanically curetted in 10 ml medium 199 with antibiotics (10 ug/ml penicillin G and 50 ug/ml gentamycin) in a glass Petri dish. Each bone was curetted with a scalpel blade and was finely minced. The fragments were then vigorously agitated by pipetting up and down using a pasteur pipette and vortex-mixed for 30 seconds. The fragments were allowed to settle and the cell suspension was then transferred to a 50 ml tube and the previous step repeated three times to a total volume of 40 ml. The bone fragments were allowed to settle (>1 min). The cell suspension was then transferred to a new 50 ml tube, passed through a 40 um cell strainer and centrifuged at 200 g for 8 minutes. The supernatant was removed and the pellet was immediately resuspended in α-MEM with 2% FBS (bicarbonate buffered medium).
# 40 uL droplets of osteoclast-containing suspensions were plated onto 60 mm tissue culture plastic dishes or on dentine slices in 96-well microtiter plates in 2% medium. The cells were allowed ninety minutes for attachment before the addition of 2 mL α-MEM with 2% FBS. After 24 hr culture, cells were washed to remove non-adherent cells and replaced with fresh medium as describes below.
# After 24 hr in culture, the medium was replaced with fresh medium containing control, LTB4 receptor antagonists (1000 nM), DW1350 (10, 100 and 1000 nM) or LTB4 (100 nM) and the cultures were continued for an additional 48 hrs.
# All cells were cultured at 37° C. in a humidified atmosphere of 95% air and 5% CO2 in bicarbonate buffered medium at pH 7.4.
# Differentiated osteoclasts are multinucleated cells and have specific enzyme activity, such as ‘tartrate-resistant acid phosphatase (TRAP)’. Therefore, Osteoclast formation was determined by counting the number of TRAP-positive multinucleated cells (TRAP(+) MNCs).
# After culture, the cells were fixed with 10% neutral buffered formalin for 30 min at 4° C., washed twice in distilled water and stained for TRAP activity by incubating with substrate. The number of TRAP(+)MNC with more than 2 nuclei was counted under photomicroscope.
# Results were expressed as mean number of TRAP(+)MNC±SD of All experiments were done at least twice. Statistical analysis was performed for each experiment by student t-test.
smiles,measurement,setting,value
"Cc1nc(-c2ccc(OCCCCCOc3ccc(C(=N)NO)cc3)cc2)c(C(C)C)s1 [DW1350, N-hydroxy-4-{5-[4-(5-isopropyl-2-methyl-1,3-thiazol-4-yl)phenoxy]pentoxy}-benzamidine]",number of TRAP(+) MNCs / osteoclast formation,"1000 nM, single treatment without LTB4, dentine slices, 48 hrs (FIG. 3-8)",significant inhibition on the formation of osteoclasts; also recorded: significantly inhibited it
same,cytotoxic effect based on cell morphology,"10˜1000 nM, 48 hours",No cytotoxic effect based on cell morphology was not observed
same,number of TRAP(+) MNCs,"10˜1000 nM, 48 hours, tissue culture dish, single treatment (FIG. 1, 2)",significantly decreased the number of TRAP(+) MNCs in a dose-dependent manner
